Where a name gives a salt, the structure may show the parent alone.

In one assay the test system is anaesthetized rabbits. Kind of assay: Reinfusion ischemia in anaesthetized rabbits (iv). The assay is classed as in vivo, rabbit. The conditions noted are these: 0.16 mg/kg iv. The text has this:
(§1) The compounds of the present invention of formula I and the therapeutically acceptable salts thereof have advantageous pharmacological properties. These derivatives are active on cardiomyocytes by inhibiting the diastolic contraction induced by veratrine in isolated rat left atrium. These compounds are also active in vivo during reinfusion ischemia in anaesthetized rabbits: they inhibit the electrical disturbances in the ECG caused by the reinfusion ischemia without any appreciable hemodynamic effect and are not cardiac depressors. Such compounds are useful for preventive or curative purposes in the treatment of coronaropathies and cardiac and cerebral ischemia in all their forms and in the treatment of atherosclerosis.
Compounds of the present invention are also active via the venous route in the test of reinfusion ischemia in anaesthetized rabbits according to the method of Verscheure et al. (Fundam Clin Pharmacol (1993) 7, 385). The results for the compounds of Examples 1, 2, 11 and 15 are given in the table below by way of non-limiting example: […]

In the next assay the test system is isolated rat left atrium. Kind of assay: Inhibition of contraction of isolated rat left atrium by veratrine. The assay is classed as cell-based.
Text: as §1
Inhibition of contraction of isolated rat left atrium by veratrine was carried out according to the technique of Le Grand et al. (Naunyn--Schmiedeberg's Arch Phazmacol (1993) 348 pp. 184-190). The results are given in the table below, in which the IC50 values are expressed in micromoles for certain compounds, by way of non-limiting examples: […]

Consider `CC(C)NCC(O)COc1ccc(CC(N)=O)cc1` (centres unmarked) [Atenolol, reference compound], for which, in the assay on anaesthetized rabbits, the “% arterial pressure variation” value is listed as -9%, the “% heart rate variation” value is on record as -13%, the “% inhibition ST segment” value is on record as 64% and the “Number of arrythmias under reinfusion” value is reported as 4/6.
The corresponding values for `COc1ccc([C@@H]2Sc3ccccc3N(CCN(C)C)C(=O)[C@@H]2OC(C)=O)cc1` [Diltiazem, reference compound] are -27%, -5%, 61% and 0/6.
One may read the IC50 as the concentration at which inhibition is half-maximal. For the compound `CN(C1=Nc2ccccc2CS1)C1CCN(CCCCOc2ccc(F)cc2)CC1.O=C(O)/C=C\C(=O)O` [Example 1, N-Methyl-N-[1-[4-(4-fluorophenoxy)butyl]piperid-4-yl]-4H-3,1-benzothiazin-2-amine hydrogen maleate], in the assay on anaesthetized rabbits, the “% arterial pressure variation” value is “+6%”, the “% heart rate variation” value was “+3%”, the “% inhibition ST segment” value came to 76% and the “Number of arrythmias under reinfusion” value is on record as 3/5. This compound gave an IC50 in the assay with isolated rat left atrium of 150 nM.
For the compound `CN(C1=Nc2ccccc2CS1)C1CCN(CCCOc2ccc(F)cc2)CC1.O=C(O)/C=C\C(=O)O` [Example 2, N-Methyl-N-[1-[3-(4-fluorophenoxy)propyl]piperid-4-yl]-4H-3,1-benzothiazin-2-amine hydrogen maleate], in the assay with anaesthetized rabbits, the “% arterial pressure variation” value is recorded as “+4%”, the “% heart rate variation” value is listed as -3%, the “% inhibition ST segment” value is on record as 76% and the “Number of arrythmias under reinfusion” value is on record as 1/5.
`CN(C1=Nc2ccccc2CS1)C1CCN(CCCCOc2ccc(F)c(F)c2)CC1` [Example 11, N-Methyl-N-[1-[4-(3,4-difluorophenoxy)butyl]piperid-4-yl]-4H-3,1-benzothiazin-2-armine hydrogen maleate]: in the assay on anaesthetized rabbits, the “% arterial pressure variation” value is given as “+3%”, the “% heart rate variation” value is on record as -1%, the “% inhibition ST segment” value is given as 71% and the “Number of arrythmias under reinfusion” value is on record as 1/5.
For `CN(C1=Nc2ccccc2CS1)C1CCN(CC(O)COc2ccc(F)cc2)CC1.Cl.Cl` (centres unmarked) [Example 15, N-Methyl-N-[1-[2-hydroxy-3-(4-fluorophenoxy)propyl]-piperid-4-yl]-4H-3,1-benzothiazin-2-amine dihydrochloride], in the assay with anaesthetized rabbits, the “% arterial pressure variation” value was “+5%”, the “% heart rate variation” value is listed as 0%, the “% inhibition ST segment” value was found to be 90% and the “Number of arrythmias under reinfusion” value was 1/5. For the same compound, the IC50 in the assay on isolated rat left atrium amounted to 320 nM.
`CN(c1nc2ccccc2s1)C1CCN(CCCCOc2ccc(F)cc2)CC1` [R 56865, N-(1-(4-(4-fluorophenoxy)butyl)piperid-4-yl)-N-methyl-2-benzothiazolamine, reference compound]: the IC50 in the assay on isolated rat left atrium amounted to 250 nM.
For the compound `CN(c1nc2ccccc2s1)C1CCN(CC(O)COc2ccc(F)cc2)CC1` (centres unmarked) [Sabeluzole, N-(1-(2-hydroxy-3-(4-fluorophenoxy)propyl)piperid-4-yl)-N-methyl-2-benzothiazolamine, reference compound], in the assay with anaesthetized rabbits, the “% arterial pressure variation” value came to 2%, the “% heart rate variation” value is -5%, the “% inhibition ST segment” value came to 84% and the “Number of arrythmias under reinfusion” value is given as 1/5. For the same compound, the IC50 in the assay with isolated rat left atrium was found to be 5100 nM.

For the origin of these results see US6011032A, “Heterocyclic compounds for treating myocardial ischemia” (Pierre Fabre Medicament, priority 1995, dated 2000).
